The target of the assay is T1, GR-GAL4-humanPPARalpha-LBD (Homo sapiens, UniProt Q07869).
T1 construct: amino acids S167–Y468; expressed in transfected cells; host or cells: HEK cells, stably transfected (pcDNA3, CMV promoter)
T1 sequence (Q07869 167-468): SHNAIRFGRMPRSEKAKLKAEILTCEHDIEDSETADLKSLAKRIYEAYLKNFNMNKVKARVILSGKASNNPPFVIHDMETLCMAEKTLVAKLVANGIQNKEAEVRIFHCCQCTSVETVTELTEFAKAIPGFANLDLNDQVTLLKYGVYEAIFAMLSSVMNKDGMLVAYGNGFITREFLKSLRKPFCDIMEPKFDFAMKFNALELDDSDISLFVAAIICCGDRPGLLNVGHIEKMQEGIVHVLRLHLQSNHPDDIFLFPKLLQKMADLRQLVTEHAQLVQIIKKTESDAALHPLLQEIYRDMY
Description: Cellular PPARalpha assay (luciferase reporter, stably transfected HEK cell line). It counts as cell-based. The protocol: Determination of EC50 Values of PPAR Agonists in the Cellular PPARalpha Assay
The potency of substances which bind to human PPARalpha and activate in an agonistic manner is analyzed using a stably transfected HEK cell line (HEK=human embryo kidney) which is referred to here as PPARalpha reporter cell line. It contains two genetic elements, a luciferase reporter element (pdeltaM-GAL4-Luc-Zeo) and a PPARalpha fusion protein (GR-GAL4-humanPPARalpha-LBD) which mediates expression of the luciferase reporter element depending on a PPARalpha ligand. The stably and constitutively expressed fusion protein GR-GAL4-humanPPARalpha-LBD binds in the cell nucleus of the PPARalpha reporter cell line via the GAL4 protein portion to the GAL4 DNA binding motifs 5′-upstream of the luciferase reporter element which is integrated in the genome of the cell line. There is only little expression of the luciferase reporter gene without addition of a PPARalpha ligand if fatty acid-depleted fetal calf serum (cs-FCS) is used in the assay. PPARalpha ligands bind and activate the PPARalpha fusion protein and thereby bring about expression of the luciferase reporter gene. The luciferase which is formed can be detected by means of chemiluminescence via an appropriate substrate.
The PPARalpha reporter cell line was prepared in 2 stages. Firstly, the luciferase reporter element was constructed and stably transfected into HEK cells. For this purpose, five binding sites of the yeast transcription factor GAL4 (each 5′-CGGAGTACTGTCCTCCGAG-3′) (SEQ ID No. 1) were cloned in 5′-upstream of a 68 bp-long minimal MMTV promoter (Genbank Accession #V01175). The minimal MMTV promoter section contains a CCAAT box and a TATA element in order to enable efficient transcription by RNA polymerase II. The cloning and sequencing of the GAL4-MMTV construct took place in analogy to the description of Sambrook J. et. al. (Molecular cloning, Cold Spring Harbor Laboratory Press, 1989). Then the complete Photinus pyralis gene (Genbank Accession #M15077) was cloned in 3′-downstream of the GAL4-MMTV element. After sequencing, the luceriferase reporter element consisting of five GAL4 binding sites, MMTV promoter and luciferase gene was recloned into a plasmid which confers zeocin resistance in order to obtain the plasmid pdeltaM-GAL4-Luc-Zeo. This vector was transfected into HEK cells in accordance with the statements in Ausubel, F. M. et al. (Current protocols in molecular biology, Vol. 1–3, John Wiley & Sons, Inc., 1995).
In a second step, the PPARalpha fusion protein (GR-GAL4-humanPPARalpha-LBD) was introduced into the stable cell clone described. For this purpose, initially the cDNA coding for the N-terminal 76 amino acids of the glucocorticoid receptor (Genbank Accession #P04150) was linked to the cDNA section coding for amino acids 1–147 of the yeast transcription factor GAL4 (Genbank Accession #P04386). The cDNA of the ligand-binding domain of the human PPARalpha receptor (amino acids S167–Y468; Genbank Accession #S74349) was cloned in at the 3′-end of this GR-GAL4 construct. The fusion construct prepared in this way (GR-GAL4-humanPPARalpha-LBD) was recloned into the plasmid pcDNA3 (from Invitrogen) in order to enable constitutive expression therein by the cytomegalovirus promoter. This plasmid was linearized with a restriction endonuclease and stably transfected into the previously described cell clone containing the luciferase reporter element. The finished PPARalpha reporter cell line which contains a luciferase reporter element and constitutively expresses the PPARalpha fusion protein (GR-GAL4-human PPARalpha-LBD) was isolated by selection with zeocin (0.5 mg/ml) and G418 (0.5 mg/ml).
The activity of PPARalpha agonists is determined in a 3-day assay which is described below: […]

In turn, `CCCCCCCN(CCO[C@@H]1CCC[C@H](CCC(CC)C(=O)O)C1)C(=O)NCCCC` (relative stereo) [Example 2, 4-{cis-3-[2-(3-butyl-1-heptylureido)ethoxy]cyclohexyl}-2-ethylbutyric acid] gave an EC50 of 1 nM. This counts as single-digit nanomolar.

As for `CCCCCCCN(CCOC1CCCC(CCC(C)(C)C(=O)O)C1)C(=O)NCCCC` (racemic) [Example 9, 4-{cis-3-[2-(3-butyl-1-heptylureido)ethoxy]cyclohexyl)-2,2-dimethylbutyric acid], the response was half-maximal at 8.8 nM (EC50).

With `CCCCCCCN(CCO[C@@H]1CCC[C@H](CCC(C(=O)O)C(C)C)C1)C(=O)NCCCC` (relative stereo) [Example 5, 2-(2-{cis-3-[2-(3-butyl-1-heptylureido)ethoxy]cyclohexyl}ethyl)-3-methylbutyric acid], a half-maximal effect (EC50) was put at 0.38 nM.

Turning to `CCCCCCCN(CCO[C@@H]1CCC[C@H](CCC(CC)C(=O)O)C1)C(=O)NC1CCCCC1` (relative stereo) [Example 3, 4-{cis-3-[2-(3-cyclohexyl-1-heptylureido)ethoxy]cyclohexyl}-2-ethylbutyric acid], a half-maximal effect (EC50) was put at 0.56 nM.

For `CCC(CCC1CCCC(OCCN(Cc2ccc(C)cc2)C(=O)NC2CCCCC2)C1)C(=O)O` (racemic) [Example 1, 4-(cis-3-{2-[3-cyclohexyl-1-(4-methylbenzyl)ureido]ethoxy}cyclohexyl)-2-ethylbutyric acid], the EC50 came out at 1.1 nM.

In turn, `CCCCNC(=O)N(CCO[C@@H]1CCC[C@H](CCC(C)(C)C(=O)O)C1)Cc1ccc(C)cc1` (relative stereo) [Example 10, 4-(cis-3-{2-[3-butyl-1-(4-methylbenzyl)ureido]ethoxy}cyclohexyl)-2,2-dimethylbutyric acid] showed an EC50 of 74 nM.

The compound `CCCCCCCN(CCO[C@@H]1CCC[C@H](CCC(C)(C)C(=O)O)C1)C(=O)NC1CCCCC1` (racemic) [Example 11, 4-{cis-3-[2-(3-cyclohexyl-1-heptylureido)ethoxy]cyclohexyl}-2,2-dimethylbutyrate] yielded an EC50 of 28 nM. Against the preceding compound, the EC50 is about 2.6-fold lower.

As usually defined, the EC50 is the midpoint of the concentration-response curve.
